Marks after values point to notes of the source that are not given here.
Columns and labels:
[1] = test system: S. aureus (PCI 1203; ATCC 10537); assay: aPDI with CFL irradiation (406 nm), planktonic bacteria, drop-plate colony count; assay type: cell-based, Staphylococcus aureus; conditions: for potency relative to dark toxicity (0 min exposure): 3-log reduction
Procedure: The aPDI properties of Ga-PpIX were compared against PpIX, whose photosensitizer activities are well known and whose optical profile is similar to that of Ga-PpIX (FIG. 2).
(§1) All bacterial strains were cultured at 37° C. in an aerobic atmosphere unless otherwise noted. […] Bacterial counts were estimated in units of cfu/mL by plating serial dilutions onto agar plates, followed by incubation for 16 hours at 37° C. […] Further details and variations on iron-deficient culture conditions are provided in Supporting Information.
(§2) Antimicrobial assays were performed on planktonic bacteria at 10^7 cfu/mL with variable exposure times to CFL irradiation, followed by plating on agar and incubation at 37° C. […] The irradiated bacteria were plated onto agar in serial tenfold dilutions (10^7-10^1 cfu/mL); controls included one set of wells without photosensitizer, and one set of wells with photosensitizer but without 15 min irradiation, prior to plating (dark toxicity). Bacterial counts were determined by the drop-plate method using TS-agar plates, and reported in colony-forming units per milliliter (cfu/mL).
(§3) The irradiation source consisted of a 20-W compact fluorescent lightbulb (CFL; Sunlite SL20/BLB) housed in an ellipsoidal reflector dome.

[2] = test system: MRSA (USA200), clinical isolate NRS 383; assay: as above; assay type: cell-based, Staphylococcus aureus; conditions: for potency relative to dark toxicity (0 min exposure): 15 min CFL, 3-log reduction
Procedure: In all cases, we observed potent aPDI with bactericidal activities at 1-5 μM (Table 1). The consistent response to Ga-PpIX treatment is encouraging, as variable efficacy between strains is a known problem in antimicrobial photodynamic therapy (Nakonieczna, J. et al., Photodiagn. Photodyn. Ther. 2012, 9, 359-361). […] We note that PpIX is already approved as a photosensitizer for topical treatment of several skin diseases, but its utility is limited by poor photostability.
All bacterial strains were cultured at 37° C. in an aerobic atmosphere unless otherwise noted. […] Bacterial counts were estimated in units of cfu/mL by plating serial dilutions onto agar plates, followed by incubation for 16 hours at 37° C. Iron-challenged conditions were typically achieved by first growing the bacteria in standard (iron-replete) media (see Table 2), then harvesting and resuspending in media containing 3 mM 2,2′-bipyridine. Further details and variations on iron-deficient culture conditions are provided in Supporting Information.
A 20-W compact fluorescent lightbulb (CFL; Sunlite SL20/BLB) housed in an ellipsoidal reflector dome was used for aPDI, at an emission wavelength at 406 nm and a mean power density of 12.4 mW/cm^2 (after applying a 408-nm shortpass filter). Antimicrobial assays were performed on planktonic bacteria at 10^7 cfu/mL with variable exposure times to CFL irradiation, followed by plating on agar and incubation at 37° C. In a typical experiment, bacterial suspensions were transferred into 96-well plates then treated with 100-μL aliquots of Ga-PpIX or PpIX solution, with final concentrations ranging from 320 to 0.31 μg/mL, followed immediately with CFL irradiation for 5 to 15 minutes. The irradiated bacteria were plated onto agar in serial tenfold dilutions (10^7-10^1 cfu/mL); controls included one set of wells without photosensitizer, and one set of wells with photosensitizer but without 15 min irradiation, prior to plating (dark toxicity). Bacterial counts were determined by the drop-plate method using TS-agar plates, and reported in colony-forming units per milliliter (cfu/mL).
The irradiation source consisted of a 20-W compact fluorescent lightbulb (CFL; Sunlite SL20/BLB) housed in an ellipsoidal reflector dome. Emission spectra were measured with an Acton SpectraPro 2300i spectrometer (1200 gratings/inch), with major peaks at 406 and 438 nm and a minor peak at 548 nm (FIG. 10). Irradiance was measured with a handheld luminometer (Lux/FC HS1010A) positioned 4 cm from the CFL, yielding 91 lux or an average power density of 36.4 mW/cm^2; addition of a 425-nm or 408-nm shortpass filter yielded 31 lux or 12.4 mW/cm^2 corresponding with emission at 406 nm. The CFL produced only minor increases in temperature within the dome (28° C. after 15 min).

[3] = test system: S. epidermis (ATCC 155); assay: as above; assay type: cell-based, Staphylococcus epidermidis; conditions: for potency relative to dark toxicity (0 min exposure): 15 min CFL, 3-log reduction
Procedure: as §1, §2, §3

[4] = test system: S. aureus; assay: Antibacterial activity assay with LED light; assay type: cell-based, Staphylococcus aureus
Procedure: Antibacterial activity assay general protocol: Used LED light to test conditions. Bacteria were grown in TS broth, followed by 3 mM bipyridine in TS broth until log phase. Bacteria were then diluted with PBS, to OD 0.1 (˜10^) and then to ˜10^7 cfu/mL. 100 uL of bacteria were placed in 96 well plates with the appropriate GaPpIX concentration. 2× serial dilutions were then done to obtain other GaPpIX concentrations. Each concentration was done in triplicate. Bacteria were left incubating and irradiating for different amount of times at different light powers or left in the dark. 10× Serial dilutions were done and bacteria were plated for colony counting using the drop-plate technique. Colonies were counted after 24 hours. As reported herein, a 3-log reduction equals measurable antimicrobial action; a 6-log reduction equals total eradication.
Stock solution preparation (AVM-3-36, 10 nm AgNP). Prepared a solution of (AVM-2-273) GaPpIX-apoHb 1 mg/mL in MP H2O, deaerated. Took 10 mL of 10 nm AgNPs, centrifuged at 900 G for 5 min (Beckman, 3100 RPM), took supernantant and added 200 uL of GaPpIXHb. After overnight, centrifuged 3000 RPM g for 5 minutes (Beckman). Took supernantant and centrifuged using a 100 K CentriCon tube at 4000 RPM for 5 minutes, 3×. Added 15 mM borate buffer to NPs. Based on calibration curve, the stock solution is 1.94 ug/mL AgNP, so stock: 79 μg/mL AgNP, 10.37 μg/mL GaPpIXHb, 0.446 μg/mL GaPpIX (refer to AVM-2-293A and AVM-3-3).
The following antibacterial activity measurements were assayed in the presence of AgNP.

[5] = test system: S. aureus (PCI 1203); assay: Competitive hemin uptake assay (fluorescence microscopy); assay type: cell-based, Staphylococcus aureus; conditions: standard conditions (TS media); no background subtraction
[6] = 0 min (dark), no irradiation (dark toxicity)
[7] = 15 min CFL 406 nm, 12.4 mW/cm^2 (11.2 J/cm^2)
[8] = 15 min CFL (11.2 J/cm^2), listed as PpIX
[9] = 15 min CFL (11.2 J/cm^2), listed as GaPpIX (1)

Row | Molecule | Antimicrobial activity (minimum 3-log CFU reduction) [1, 6] [μM] | Antimicrobial activity (minimum 3-log CFU reduction) [1, 7] [μM] | Eradication (6 log reduction) ([1]; 15 min CFL (11.2 J/cm^2)) [μM] | potency relative to dark toxicity (0 min exposure) ([1]; 15 min CFL) [x] | Eradication (6 log reduction) ([1]; No irradiation (dark toxicity)) [μM] | Antimicrobial activity (minimum 3-log CFU reduction) [2, 6] [μM] | Eradication (6 log reduction) ([2]; 15 min CFL (11.2 J/cm^2)) [μM] | potency relative to dark toxicity (0 min exposure) [2] [x] | Eradication (6 log reduction) ([2]; No irradiation (dark toxicity)) [μM] | Antimicrobial activity (minimum 3-log CFU reduction) [3, 6] [μM] | Antimicrobial activity (minimum 3-log CFU reduction) ([3]; 15 min CFL (11.2 J/cm^2)) [μM] | potency relative to dark toxicity (0 min exposure) [3] [x] | Eradication (6 log reduction) ([3]; No irradiation (dark toxicity)) [μM] | concentration for 3-log reduction (measurable antimicrobial action) [4] [nM] | concentration for 6-log reduction (total eradication) [4] [nM] | Fluorescence after 15 min [5] [a.u.] | Fluorescence after 15 min exposure + 1 equiv. hemin [5] [a.u.] | also measured
1 | C=CC1=C(C)c2cc3[nH]c(cc4nc(cc5[nH]c(cc1n2)c(C)c5CCC(=O)O)C(CCC(=O)O)=C4C)c(C)c3C=C [PpIX (2), PpIX, reference compound] | 36 | 1.1 | 2.3 | 32 | 73 | 36.3 | 4.6 | 32 | 146 | >146 | 4.5 | >32 | >146 | 940 | 1900 | 11.90 | 10.15 | Antimicrobial activity (minimum 3-log CFU reduction) ([2]; 15 min CFL (11.2 J/cm^2)): 1.1 μM; Antimicrobial activity (minimum 3-log CFU reduction) [2, 8]: 1.1^c μM; Antimicrobial activity (minimum 3-log CFU reduction) ([3]; 0 min (dark), no irradiation (dark toxicity), listed as PpIX): >146^d μM; Eradication (6 log reduction) ([3]; 15 min CFL (11.2 J/cm^2)): 9 μM; Antimicrobial activity (minimum 3-log CFU reduction) [3, 8]: 4.6 μM
2 | Ga(III)-protoporphyrin [Ga-PpIX (1)] | >60 | 0.47 | 7.5 | >128 | 120 | 36.3 | 2.3 | 32 | 73 | 146 | 0.57 | 256 | 146 | 59 | 235 | 18.09 | 15.08 | Antimicrobial activity (minimum 3-log CFU reduction) ([1]; 5 min CFL 406 nm, 12.4 mW/cm^2 (3.7 J/cm^2)): 3.75 μM; Eradication (6 log reduction) ([1]; 5 min CFL (3.7 J/cm^2)): 15 μM; potency relative to dark toxicity (0 min exposure) ([1]; 5 min CFL): >16x; concentration for >99.9% reduction ([1]; 15 minutes of CFL irradiation): 470 nM; increase in potency relative to Ga-PpIX dark toxicity (>99.9% reduction) ([1]; 15 minutes of CFL irradiation): 128 fold; increase in potency relative to Ga-PpIX dark toxicity (total eradication, >6 log reduction) ([1]; 15 minutes of CFL irradiation): 16 fold; Antimicrobial activity (minimum 3-log CFU reduction) ([2]; 15 min CFL (11.2 J/cm^2), listed as Ga-): 1.1^c μM; Antimicrobial activity (minimum 3-log CFU reduction) [2, 9]: 1.1 μM; Eradication (6 log reduction) ([3]; 15 min CFL (11.2 J/cm^2), listed as Ga-PpIX): 1.1 μM; Eradication (6 log reduction) [3, 9]: 4.5 μM; bactericidal activity ([3]; CFL irradiation, clinical isolate from a skin lesion): 570 nM

— patent US10722582B2, “Targeted antimicrobial photodynamic therapy” (Purdue Research Foundation, priority 2018, dated 2020)
